Experimental data published in article PMC12051030, “Identification of inhibitors of the Salmonella FraB deglycase, a drug target” (FEBS Open Bio, 2025).
Read-outs that look alike come from different tables or passages of the source.

B1: FraB (Salmonella enterica subsp. enterica serovar Typhimurium str. LT2) (protein)
chain: MMGMKETVSNIVTSQAEKGGVKHVYYVACGGSYAAFYPAKAFLEKEAKALTVGLYNSGEFINNPPVALGENAVVVVASHKGNTPETIKAAEIARQHGAPVIGLTWIMDSPLVAHCDYVETYTFGDGKDIAGEKTMKGLLSAVELLQQTEGYAHYDDFQDGVSKINRIVWRACEQVAERAQAFAQEYKDDKVIYTVASGAGYGAAYLQSICIFMEMQWIHSACIHSGEFFHGPFEITDANTPFFFQFSEGNTRAVDERALNFLKKYGRRIEVVDAKELGLSTIKTTVIDYFNHSLFNNVYPVYNRALAEARQHPLTTRRYMWKVEY

Tests used:
[1] = molecular target: T1, FraB (Salmonella enterica subsp. enterica serovar Typhimurium, UniProt Q8ZLD0); details: previously reported; cited from earlier work
[2] = molecular target: T1, FraB; test: FraB assay, Michaelis–Menten kinetics with substrate; format: biochemical
Experimental: The substrate for FraB, 6‐P‐F‐Asp, was synthesized as previously described. FraB activity was monitored as described previously, with the following changes. The final reaction (30 μL) consisted of 25 mM HEPES pH 8 (at 20 °C), 5 mM MgCl2, 0.1 mM ethylene glycol tetraacetic acid (EGTA), 0.5 mM NAD^+, 1 mU G6PD from Leuconostoc mesenteroides (#LS003981; Worthington Biochemicals, Lakewood, NJ, USA), 100 nM His6‐FraB, and 0–3 mM 6‐P‐F‐Asp. The reaction mixture without substrate (29 μL) was added to one well of a 384‐well polystyrene white μClear® microplate (#781095; Greiner Bio‐One, Monroe, NC, USA) and incubated at 37 °C for 2 min, prior to the addition of 1 μL substrate to initiate the reaction. NADH generation was monitored using either absorbance (340 nm) or fluorescence (350 nm excitation, 450 nm emission) and with either an INFINITE M1000 PRO (Tecan, Mannedorf, Switzerland) or Synergy H1 (Biotek, Winooski, VT, USA) plate reader. Absorbance/fluorescence was plotted against time and slopes were obtained by linear regression analyses. These slopes were converted into initial velocities by dividing them by either the absorbance extinction coefficient (ε340 = 6,220 M ^−1·cm^−1) or the molar fluorescence determined based on standard curves obtained in different plate readers (23,646 RFUs·μM ^−1, Tecan; 285,108 RFUs·μM ^−1, Biotek; Fig. S2). […]

[3] = substrate: O=C(O)C[C@H](NCC1(O)O[C@H](COP(=O)(O)O)[C@@H](O)[C@@H]1O)C(=O)O; test: as above; format: biochemical, Salmonella; details: pH 8.0
Experimental: The substrate for FraB, 6‐P‐F‐Asp, was synthesized as previously described. FraB activity was monitored as described previously, with the following changes. The final reaction (30 μL) consisted of 25 mM HEPES pH 8 (at 20 °C), 5 mM MgCl2, 0.1 mM ethylene glycol tetraacetic acid (EGTA), 0.5 mM NAD^+, 1 mU G6PD from Leuconostoc mesenteroides (#LS003981; Worthington Biochemicals, Lakewood, NJ, USA), 100 nM His6‐FraB, and 0–3 mM 6‐P‐F‐Asp. The reaction mixture without substrate (29 μL) was added to one well of a 384‐well polystyrene white μClear® microplate (#781095; Greiner Bio‐One, Monroe, NC, USA) and incubated at 37 °C for 2 min, prior to the addition of 1 μL substrate to initiate the reaction. NADH generation was monitored using either absorbance (340 nm) or fluorescence (350 nm excitation, 450 nm emission) and with either an INFINITE M1000 PRO (Tecan, Mannedorf, Switzerland) or Synergy H1 (Biotek, Winooski, VT, USA) plate reader. Absorbance/fluorescence was plotted against time and slopes were obtained by linear regression analyses. These slopes were converted into initial velocities by dividing them by either the absorbance extinction coefficient (ε340 = 6,220 M ^−1·cm^−1) or the molar fluorescence determined based on standard curves obtained in different plate readers (23,646 RFUs·μM ^−1, Tecan; 285,108 RFUs·μM ^−1, Biotek; Fig. S2). These initial velocities (v o) in turn were plotted against [6‐P‐F‐Asp] to obtain Michaelis–Menten curves that were fit to the formula v o = (V max × [S])/(K m + [S]) by Kaleidagraph (Version 4.5.3; Synergy Software, Reading, PA, USA). The activity of recombinant FraB (Fig. S3) was similar to that as reported previously.

[4] = other: newer batches of substrate
[5] = other: representative Michaelis-Menten plot, Fig. S3, curve-fit errors

| Molecule | K m [1] [µM] | k cat [1] [s⁻¹] | k cat/K m [1] [min^−1 mM ^−1] | K m ([2]; approximate value used for [S]/K m) | K m ([2]; newer batches of substrate) [mM] | kcat [3, 4] [s⁻¹] | kcat/Km [3, 4] | Km [3, 5] [µM] | kcat [3, 5] [s⁻¹] | kcat/Km [3, 5] [min⁻¹ mM⁻¹] |
| --- | --- | --- | --- | --- | --- | --- | --- | --- | --- | --- |
| O=C(O)C[C@H](NCC1(O)O[C@H](COP(=O)(O)O)[C@@H](O)[C@@H]1O)C(=O)O (stereo partly shown) [6‐P‐F‐Asp, 6‐phosphofructose‐aspartate] | 116 ± 12 | 1.05 ± 0.167 | 543 | ~ 40 μM | 0.042 ± 0.007 | – | – | – | – | – |
| B1 | – | – | – | – | – | 0.95 ± 0.012 | 1,357 min^−1 mM ^−1 | 67 ± 8 | 1.16 ± 0.00317 | 1040 |
